T1: P. falciparum nicotinamidase (PfNic) (Plasmodium falciparum, UniProt O97284)
T1 construct: gene PF3D7_0320500
T1 sequence (O97284 1-429): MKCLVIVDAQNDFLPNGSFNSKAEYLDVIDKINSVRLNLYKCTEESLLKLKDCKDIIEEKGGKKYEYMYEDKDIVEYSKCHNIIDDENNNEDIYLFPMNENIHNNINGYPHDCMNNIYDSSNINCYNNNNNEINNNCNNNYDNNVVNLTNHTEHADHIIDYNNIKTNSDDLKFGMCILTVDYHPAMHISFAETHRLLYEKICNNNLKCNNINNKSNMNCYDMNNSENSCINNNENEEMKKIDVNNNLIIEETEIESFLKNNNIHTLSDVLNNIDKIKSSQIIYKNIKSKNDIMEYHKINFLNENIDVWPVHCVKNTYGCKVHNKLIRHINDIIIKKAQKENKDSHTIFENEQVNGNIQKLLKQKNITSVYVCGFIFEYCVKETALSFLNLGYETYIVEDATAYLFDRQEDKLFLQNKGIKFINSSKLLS

B1: P. falciparum nicotinamidase (PfNic) (Plasmodium falciparum 3D7) (protein)
chain: MKCLVIVDAQNDFLPNGSFNSKAEYLDVIDKINSVRLNLYKCTEESLLKLKDCKDIIEEKGGKKYEYMYEDKDIVEYSKCHNIIDDENNNEDIYLFPMNENIHNNINGYPHDCMNNIYDSSNINCYNNNNNEINNNCNNNYDNNVVNLTNHTEHADHIIDYNNIKTNSDDLKFGMCILTVDYHPAMHISFAETHRLLYEKICNNNLKCNNINNKSNMNCYDMNNSENSCINNNENEEMKKIDVNNNLIIEETEIESFLKNNNIHTLSDVLNNIDKIKSSQIIYKNIKSKNDIMEYHKINFLNENIDVWPVHCVKNTYGCKVHNKLIRHINDIIIKKAQKENKDSHTIFENEQVNGNIQKLLKQKNITSVYVCGFIFEYCVKETALSFLNLGYETYIVEDATAYLFDRQEDKLFLQNKGIKFINSSKLLS
notes: 429 amino acids, N-terminal histidine tag (pet28a), expressed in Rosetta (DE3) E. coli

How the values were obtained:
[1] = target: T1, P. falciparum nicotinamidase (PfNic); experiment: […]-nicotinamide to nicotinic acid conversion (HPLC, scintillation counting) in lysates of parasites pre-treated with […] compound for […] h; type: cell-based
purified protein = substrate: NC(=O)c1cccnc1; experiment: purified protein; type: biochemical, Plasmodium falciparum

Row | Molecule | 14C-nicotinamide to nicotinic acid conversion (HPLC, scintillation counting) in [1] | Km (purified protein) [µM]
1 | Cc1cncc(C=O)c1 [5-methyl-nicotinaldehyde] | indicating 5-Me-nicotinaldehyhde was able to inhibit P. falciparum nicotinamidase in the lysate | 
2 | B1 |  | 3.0 ± 0.9
